Data: the supplement of paper PMC7108870

Tests used:
HEK293sieSTAT3(wt) [1] = assay: drug sensitivity score (DSS), viability CellTiter-Glo (DSS (dimensionless)); higher = more growth inhibition; extreme values may be limits of the assay; conditions: 72 h; STAT3 variant: wild type
Outline: (§1)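 HEK293 cells carrying a STAT3-dependent luciferase reporter and overexpressing wild-type or mutant STAT3 (20 μl at 100,000 cells/ml) were added to compounds acoustically pre-plated at 5 concentrations in 10-fold dilutions in 384-well plates. After 72 hours at 37°C and 5% CO2, CellTox Green fluorescence (485/520 nm) and then CellTiter-Glo luminescence were read on a PHERAstar FS. Values were normalised to negative and positive control wells, and a drug sensitivity score based on dose-response curve area was computed in Breeze. Each value comes from one representative of two experiments.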

HEK293sieSTAT3(Y640F) [2] = assay: as above; conditions: 72 h; STAT3 variant: Y640F (constitutively active)
Outline: as §1

HEK293sieSTAT3(wt) [3] = assay: drug sensitivity score (DSS), cytotoxicity CellTox Green (DSS (dimensionless)); higher = more cytotoxic; extreme values may be limits of the assay; conditions: 72 h; STAT3 variant: wild type
Outline: as §1

HEK293sieSTAT3(Y640F) [4] = assay: as above; conditions: 72 h; STAT3 variant: Y640F (constitutively active)
Outline: as §1

Compound	drug sensitivity score (HEK293sieSTAT3(wt) [1])	drug sensitivity score (HEK293sieSTAT3(Y640F) [2])	drug sensitivity score (HEK293sieSTAT3(wt) [3])	drug sensitivity score (HEK293sieSTAT3(Y640F) [4])
Cc1sc2c(c1C)C(c1ccc(Cl)cc1)=N[C@@H](CC(=O)Nc1ccc(O)cc1)c1nnc(C)n1-2 [OTX015] (top concentration tested 10000 nM)	10.5	12.2	10.9	3.12
COC1=CC(c2cc3ccccc3[nH]2)=N/C1=C\c1[nH]c(C)cc1C [Obatoclax] (top concentration tested 10000 nM)	2.27	1.57	0	0
O=C(c1cc(Cc2n[nH]c(=O)c3ccccc23)ccc1F)N1CCN(C(=O)C2CC2)CC1 [Olaparib] (top concentration tested 10000 nM)	3.58	4.22	0.67	0
COC(=O)C[C@](O)(CCCC(C)(C)O)C(=O)O[C@@H]1C(OC)=C[C@]23CCCN2CCc2cc4c(cc2[C@H]13)OCO4 [Omacetaxine] (top concentration tested 10000 nM)	32.9	28.9	3.27	1.64
COc1ncc(-c2ccc3nccc(-c4ccnnc4)c3c2)cc1NS(=O)(=O)c1ccc(F)cc1F [Omipalisib] (top concentration tested 1000 nM)	22.1	18.3	6.37	0
CC(C)c1cc(C(=O)N2Cc3ccc(CN4CCN(C)CC4)cc3C2)c(O)cc1O [Onalespib] (top concentration tested 2500 nM)	24.5	20.9	18.9	7.91
COC[C@H](NC(=O)c1cnc(C)s1)C(=O)N[C@@H](COC)C(=O)N[C@@H](Cc1ccccc1)C(=O)[C@@]1(C)CO1 [Oprozomib] (top concentration tested 2500 nM)	28.8	23.6	28.3	21.5
Cc1[nH]c(/C=C2\C(=O)Nc3ccccc32)c(C)c1CCC(=O)O [Orantinib] (top concentration tested 10000 nM)	1.33	1.85	21.6	18.4
CNC(=O)c1ccc2cc([C@@]3(O)CCn4cncc43)ccc2c1 [Orteronel] (top concentration tested 10000 nM)	0	0	0	0
C=CC(=O)Nc1cc(Nc2nccc(-c3cn(C)c4ccccc34)n2)c(OC)cc1N(C)CCN(C)C [Osimertinib] (top concentration tested 2500 nM)	8.88	6.46	6.55	0.47
O=C(O)C(=O)O.[NH-][C@@H]1CCCC[C@H]1[NH-].[Pt+2] [Oxaliplatin] (top concentration tested 100000 nM)	19.3	16.9	12	5.26
C=CCc1cccc(/C=N/NC(=O)CN2CCN(Cc3ccccc3)CC2)c1O [PAC-1] (top concentration tested 10000 nM)	7.56	4.7	3.52	0
O=C(Nc1cccnc1)N1CCC(Cc2cccc(Oc3ccc(C(F)(F)F)cn3)c2)CC1 [PF-3845] (top concentration tested 10000 nM)	3.05	1.51	0	0
COc1ccccc1S(=O)(=O)Nc1ccc2c(c1)CN(C)C(=O)N2 [PFI-1] (top concentration tested 10000 nM)	5.96	5.5	6.8	0.33
CN1CCN(c2cc(C(=O)Nc3ccc4c(c3)-c3c(c(C(N)=O)nn3-c3ccc(F)cc3)CC4)c(Cl)cn2)CC1 [PHA 408] (top concentration tested 10000 nM)	8.88	9.12	8.63	5.61
CCn1nnc2c(N3CCOCC3)nc(-c3ccc(NC(=O)Nc4ccc(C(=O)N5CCN(C)CC5)cc4)cc3)nc21 [PKI-402] (top concentration tested 2500 nM)	16.8	16.7	5.48	0
O=C(Nc1cc(Cl)cc2c1[nH]c1cnccc12)c1cccnc1 [PS-1145] (top concentration tested 25000 nM)	3.94	0	0.08	1.94

Compound	drug sensitivity score (HEK293sieSTAT3(wt) [1])	drug sensitivity score (HEK293sieSTAT3(Y640F) [2])	drug sensitivity score (HEK293sieSTAT3(wt) [3])	drug sensitivity score (HEK293sieSTAT3(Y640F) [4])
COc1cc(Br)c(Nc2nc(-c3c(C)nc4ncccn34)cs2)c(Br)c1 [PTC-209] (top concentration tested 10000 nM)	15.7	16	2.2	0.1
CC(=O)O[C@H]1C(=O)[C@@]2(C)[C@H]([C@H](OC(=O)c3ccccc3)[C@]3(O)C[C@H](OC(=O)[C@H](O)[C@@H](NC(=O)c4ccccc4)c4ccccc4)C(C)=C1C3(C)C)[C@]1(OC(C)=O)CO[C@@H]1C[C@@H]2O [Paclitaxel] (top concentration tested 1000 nM)	23.2	16.4	16.8	0.91
C1=N/C2=N/c3ccc(OCCN4CCCC4)c(c3)COC/C=C/COCc3cccc(c3)C(=C1)N2 [Pacritinib] (top concentration tested 10000 nM)	11.1	12.1	10.8	6.22
CC(=O)c1c(C)c2cnc(Nc3ccc(N4CCNCC4)cn3)nc2n(C2CCCC2)c1=O [Palbociclib] (top concentration tested 10000 nM)	6.99	5.65	7.3	1.93
COc1ccc(COc2cc3oc(=O)c4cc(C(C)O)ccc4c3cc2OC)cc1 (stereo unspecified) [Palomid-529] (top concentration tested 10000 nM)	2.21	2.18	3.06	0
Cc1[nH]c2ccccc2c1CCNCc1ccc(/C=C/C(=O)NO)cc1 [Panobinostat] (top concentration tested 1000 nM)	20.4	20.6	17.8	11.6
C/C(=C\c1csc(C)n1)[C@@H]1C[C@@H]2O[C@]2(C)CCC[C@H](C)[C@H](O)[C@@H](C)C(=O)C(C)(C)[C@@H](O)CC(=O)O1 [Patupilone] (top concentration tested 1000 nM)	21.9	19.1	15.5	4.17
Cc1ccc(Nc2nccc(N(C)c3ccc4c(C)n(C)nc4c3)n2)cc1S(N)(=O)=O [Pazopanib] (top concentration tested 10000 nM)	0.89	0.04	0	0
CCOc1cc2ncc(C#N)c(Nc3ccc(F)c(Cl)c3)c2cc1NC(=O)/C=C/CN(C)C [Pelitinib] (top concentration tested 2500 nM)	9.21	6.05	3.88	1.79
Nc1nc2[nH]cc(CCc3ccc(C(=O)N[C@@H](CCC(=O)O)C(=O)O)cc3)c2c(=O)[nH]1 [Pemetrexed] (top concentration tested 10000 nM)	13.3	12.9	2.93	0
OC[C@H]1O[C@@H](n2cnc3c2N=CNC[C@H]3O)C[C@@H]1O [Pentostatin] (top concentration tested 10000 nM)	1.4	0.02	0	0
CCCCCCCCCCCCCCCCCCOP(=O)([O-])OC1CC[N+](C)(C)CC1 [Perifosine] (top concentration tested 2500 nM)	2.19	5.21	0.08	0
NS(=O)(=O)OC[C@@H]1C[C@@H](n2ccc3c(N[C@H]4CCc5ccccc54)ncnc32)C[C@@H]1O [Pevonedistat] (top concentration tested 10000 nM)	23.6	22.3	7.13	3.23
FC(F)(F)c1ccc(CNc2ccc(Cc3c[nH]c4ncc(Cl)cc34)cn2)cn1 [Pexidartinib] (top concentration tested 10000 nM)	2.35	3.45	0	0
CS(=O)(=O)N1CCN(Cc2cc3nc(-c4cccc5[nH]ncc45)nc(N4CCOCC4)c3s2)CC1 [Pictilisib] (top concentration tested 10000 nM)	15.7	12.7	7.57	1.36
COc1ccc(Cl)c(Nc2nc3ccccc3nc2NS(=O)(=O)c2cccc(NC(=O)C(C)(C)N)c2)c1 [Pilaralisib] (top concentration tested 2500 nM)	3.92	6.22	0	0
CC[C@@H]1C(=O)OC[C@@H]1Cc1cncn1C [Pilocarpine] (top concentration tested 40000 nM)	1.32	0.59	0	0
